Each structure is given as a SMILES string. Starred links: 1 amine or outer side, 2 acyl side, 3 side chain; linkers in the order of their positions; H or OH if unused. Positions of bridges follow the written chain, without caps; N, C: chain ends. Non-standard residues stand in square brackets, D forms with d. Residues, ends and D or L forms follow the SMILES beside them. *: point of attachment. hPhe(3-Cl-4-CF3) = N[C@@H](CCc1ccc(C(F)(F)F)c(Cl)c1)C(=O)O; hPhe(3-F,4-CF3) = N[C@@H](CCc1ccc(C(F)(F)F)c(F)c1)C(=O)O; NMePhe(4-CF3) = CN[C@@H](Cc1ccc(C(F)(F)F)cc1)C(=O)O; X86 = O=C([C@H](CCc1ccc2occc2c1)N[*:1])[*:2]; NMePhe(4-Me) = CN[C@@H](Cc1ccc(C)cc1)C(=O)O; NMeGly(cPent) = CN[C@H](C(=O)O)C1CCCC1; mXylylene = c1cc(C[*:1])cc(C[*:2])c1; NMeCha = CN[C@@H](CC1CCCCC1)C(=O)O; cisHyp = O=C(O)[C@@H]1C[C@H](O)CN1; Hyp = O=C(O)[C@@H]1C[C@@H](O)CN1; NMeChg = CN[C@H](C(=O)O)C1CCCCC1; NMeI = CC[C@H](C)[C@H](NC)C(=O)O; NMeD = CN[C@@H](CC(=O)O)C(=O)O; NMeL = CN[C@@H](CC(C)C)C(=O)O; NEtAla = CCN[C@@H](C)C(=O)O; NMeV = CN[C@H](C(=O)O)C(C)C; d(β3hA) = C[C@@H](N)CC(=O)O; Azetidin(1-yl) = C1CN(*)C1; NMeS = CN[C@@H](CO)C(=O)O; Morpholide = C1CN(*)CCO1; NMeA = CN[C@@H](C)C(=O)O; Piperidide = C1CCN(*)CC1; Pyrrolidide = C1CCN(*)C1; X45 = FC(F)Oc1ccc(C*)cc1; Ac5c = NC1(C(=O)O)CCCC1; Aze = O=C(O)[C@@H]1CCN1; Cyclopropyl = C1CC1*; NEtG = CCNCC(=O)O; Sar = CNCC(=O)O; Propyl = CCC* A value given as a limit tells only on which side of the number the result lay.

The test system of this assay is Human pancreatic cancer cell line AsPC-1. Briefly: Measurement of AsPC-1 cell growth inhibition (AsPC-1 CGI). The format is cell-based. As to conditions: 96 h. Summed up:
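AsPC-1 cells in 15% FBS RPMI-1640 were exposed to test compound for 96 hours at 37° C, with CellTiter-Glo as endpoint.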
`CC[C@H](C)[C@@H]1NC(=O)[C@H](C)N(C)C(=O)C[C@@H](C)NC(=O)[C@H](C2CCCC2)N(C)C(=O)C2(CCCC2)NC(=O)[C@@H]2CCCN2C(=O)[C@H](CCc2ccc(C(F)(F)F)c(Cl)c2)NC(=O)CN(C)C(=O)[C@H](Cc2ccc(C(F)(F)F)cc2)N(C)C(=O)[C@@H]2CCN2C(=O)[C@H](C)N(C)C1=O` [Compound 1512] (cyclo([Ac5c][NMeGly(cPent)][d(β3hA)][NMeA]I[NMeA][Aze][NMePhe(4-CF3)][Sar][hPhe(3-Cl-4-CF3)]P)): the IC50 fell in the range of 50 to 100 nM.

With `CC[C@H](C)[C@@H]1NC(=O)[C@H](CC(C)C)N(C)C(=O)C[C@@H](C)NC(=O)[C@H](C(C)C)N(C)C(=O)C2(CCCC2)NC(=O)[C@@H]2CCCN2C(=O)[C@H](CCc2ccc(C(F)(F)F)c(Cl)c2)NC(=O)CN(C)C(=O)[C@H](CC2CCCCC2)N(C)C(=O)[C@@H]2CCN2C(=O)CN(C)C1=O` [Compound 663] (cyclo([Ac5c][NMeV][d(β3hA)][NMeL]I[Sar][Aze][NMeCha][Sar][hPhe(3-Cl-4-CF3)]P)), the IC50 was 100 to 500 nM.

Regarding `CC[C@H](C)[C@@H]1NC(=O)[C@H](CC(C)C)N(C)C(=O)C[C@@H](C)NC(=O)[C@H](C2CCCC2)N(C)C(=O)C2(CCCC2)NC(=O)[C@@H]2CCCN2C(=O)[C@H](CCc2ccc(C(F)(F)F)c(Cl)c2)NC(=O)CN(C)C(=O)[C@H](Cc2ccc(C)cc2)N(C)C(=O)[C@@H]2CCN2C(=O)[C@H](C)N(CC)C1=O` [Compound 1023] (cyclo([Ac5c][NMeGly(cPent)][d(β3hA)][NMeL]I[NEtAla][Aze][NMePhe(4-Me)][Sar][hPhe(3-Cl-4-CF3)]P)), the IC50 is 50 to 100 nM.

Molecule `CC[C@H](C)[C@@H]1NC(=O)[C@H](CC(C)C)N(C)C(=O)C[C@@H](C(=O)N2CCCCC2)N(C)C(=O)[C@H](CC(C)C)N(C)C(=O)C2(CCCC2)NC(=O)[C@@H]2C[C@@H](OCc3cccc(C)c3)CN2C(=O)[C@H](CCc2ccc(C(F)(F)F)c(F)c2)NC(=O)CN(C)C(=O)[C@H](CC2CCCCC2)N(C)C(=O)CN(C)C(=O)CN(C)C1=O` [Compound 2125] ([NMeL]I[Sar][Sar][NMeCha][Sar][hPhe(3-F,4-CF3)][Hyp](mXylylene)[Ac5c][NMeL][NMeD]-Piperidide; lactam N-11) yielded an IC50 of over 500 nM.

As for `CC[C@H](C)[C@@H]1NC(=O)[C@H](CC(C)C)N(C)C(=O)C[C@@H](C(=O)N2CCCCC2)N(C)C(=O)[C@H](CC(C)C)N(C)C(=O)C2(CCCC2)NC(=O)[C@@H]2C[C@H](OCc3ccc(OC(F)F)cc3)CN2C(=O)[C@H](CCc2ccc(C(F)(F)F)c(F)c2)NC(=O)CN(C)C(=O)[C@H](CC2CCCCC2)N(C)C(=O)CN(C)C(=O)CN(C)C1=O` [Compound 2135] ([NMeL]I[Sar][Sar][NMeCha][Sar][hPhe(3-F,4-CF3)][cisHyp](X45)[Ac5c][NMeL][NMeD]-Piperidide; lactam N-11), the IC50 was over 500 nM.

Turning to `CC[C@H](C)[C@@H]1NC(=O)[C@H](CC(C)C)N(C)C(=O)C[C@@H](C)NC(=O)[C@H](C2CCCC2)N(C)C(=O)C2(CCCC2)NC(=O)[C@@H]2CCCN2C(=O)[C@H](CCc2ccc(C(F)(F)F)c(Cl)c2)NC(=O)CN(C)C(=O)[C@H](Cc2ccc(C)cc2)N(C)C(=O)CN(C)C(=O)CN(C)C1=O` [Compound 1471, (3S,9S,18S,21S,25R,28S,34S)-3-[2-[3-chloro-4-(trifluoromethyl)phenyl]ethyl]-28-cyclopentyl-21-isobutyl-7,10,13,16,22,25,29-heptamethyl-18-[(1S)-1-methylpropyl]-9-(p-tolylmethyl)spiro[1,4,7,10,13,16,19,22,26,29,32-undecazabicyclo[32.3.0]heptatriacontane-31,1′-cyclopentane]-2,5,8,11,14,17,20,23,27,30,33-undecone] (cyclo([Ac5c][NMeGly(cPent)][d(β3hA)][NMeL]I[Sar][Sar][NMePhe(4-Me)][Sar][hPhe(3-Cl-4-CF3)]P)), the IC50 lay in the range of 100 to 500 nM.

On to `CC[C@H](C)[C@@H]1NC(=O)[C@H](CC(C)C)N(C)C(=O)C[C@@H](C(=O)N2CCCCC2)N(C)C(=O)[C@H](C2CCCCC2)N(C)C(=O)C2(CCCC2)NC(=O)CN(CC)C(=O)[C@H](CCc2ccc(C(F)(F)F)c(Cl)c2)NC(=O)CN(C)C(=O)[C@H](CC2CCCCC2)N(C)C(=O)CN(C)C(=O)CN(C)C1=O` [Compound 160] ([NMeL]I[Sar][Sar][NMeCha][Sar][hPhe(3-Cl-4-CF3)][NEtG][Ac5c][NMeChg][NMeD]-Piperidide; lactam N-11), for which the IC50 was 50 to 100 nM.

`CC[C@H](C)[C@@H]1NC(=O)[C@H](C)N(C)C(=O)C[C@@H](C)NC(=O)[C@H](C2CCCC2)N(C)C(=O)C2(CCCC2)NC(=O)[C@@H]2CCCN2C(=O)[C@H](CCc2ccc(C(F)(F)F)c(Cl)c2)NC(=O)CN(C)C(=O)[C@H](Cc2ccc(C(F)(F)F)cc2)N(C)C(=O)[C@@H]2CCCN2C(=O)CN(C)C1=O` [Compound 749] (cyclo([Ac5c][NMeGly(cPent)][d(β3hA)][NMeA]I[Sar]P[NMePhe(4-CF3)][Sar][hPhe(3-Cl-4-CF3)]P)) returned an IC50 of 100 to 500 nM.

Molecule `CC[C@H](C)[C@@H]1NC(=O)[C@H](CC(C)C)N(C)C(=O)C[C@@H](C(=O)N2CCC2)N(C)C(=O)[C@H](C2CCCC2)N(C)C(=O)C2(CCCC2)NC(=O)[C@@H]2CCCN2C(=O)[C@H](CCc2ccc(C(F)(F)F)c(Cl)c2)NC(=O)CN(CC)C(=O)[C@H](CC2CCCCC2)N(C)C(=O)[C@@H]2CCN2C(=O)[C@H](C)N(C)C1=O` [Compound 726] ([NMeL]I[NMeA][Aze][NMeCha][NEtG][hPhe(3-Cl-4-CF3)]P[Ac5c][NMeGly(cPent)][NMeD]-{Azetidin(1-yl)}; lactam N-11) had an IC50 of 20 to 50 nM.

`CCCOC[C@H]1C(=O)N(C)CC(=O)N[C@@H](CCc2ccc(C(F)(F)F)c(Cl)c2)C(=O)N2CCC[C@H]2C(=O)NC2(CCCC2)C(=O)N(C)[C@@H](C(C)C)C(=O)N(C)[C@H](C(=O)N2CCCCC2)CC(=O)N(C)[C@@H](CC(C)C)C(=O)N[C@@H]([C@@H](C)CC)C(=O)N(C)[C@@H](C)C(=O)N2CC[C@H]2C(=O)N1C` [Compound 1646] ([NMeL]I[NMeA][Aze][NMeS](Propyl)[Sar][hPhe(3-Cl-4-CF3)]P[Ac5c][NMeV][NMeD]-Piperidide; lactam N-11): the IC50 lay within 100 to 500 nM.

Turning to `CC[C@H](C)[C@@H]1NC(=O)[C@H](CC(C)C)N(C)C(=O)C[C@@H](C(=O)N2CCCCC2)N(C)C(=O)[C@H](C(C)C)N(C)C(=O)C2(CCCC2)NC(=O)[C@@H]2CCCN2C(=O)[C@H](CCc2ccc(C(F)(F)F)c(Cl)c2)NC(=O)CN(C)C(=O)[C@H](CC2CCCCC2)N(C)C(=O)[C@@H]2CCN2C(=O)[C@H](C)NC1=O` [Compound 1334] ([NMeL]IA[Aze][NMeCha][Sar][hPhe(3-Cl-4-CF3)]P[Ac5c][NMeV][NMeD]-Piperidide; lactam N-11), the IC50 was in the range of 100 to 500 nM.

For `CC[C@H](C)[C@@H]1NC(=O)[C@H](CC(C)C)N(C)C(=O)C[C@@H](C(=O)N2CCCC2)N(C)C(=O)[C@H](C2CCCC2)N(C)C(=O)C2(CCCC2)NC(=O)[C@@H]2CCCN2C(=O)[C@H](CCc2ccc(C(F)(F)F)c(Cl)c2)NC(=O)CN(C)C(=O)[C@H](C2CCCC2)N(C)C(=O)[C@@H]2CCN2C(=O)[C@H](C)N(C)C1=O` [Compound 201] ([NMeL]I[NMeA][Aze][NMeGly(cPent)][Sar][hPhe(3-Cl-4-CF3)]P[Ac5c][NMeGly(cPent)][NMeD]-Pyrrolidide; lactam N-11), the IC50 was in the range of 20 to 50 nM.

The molecule `CC[C@H](C)[C@@H]1NC(=O)[C@H](CC(C)C)N(C)C(=O)C[C@@H](C(=O)N2CCOCC2)N(C)C(=O)[C@H]([C@@H](C)CC)N(C)C(=O)C2(CCCC2)NC(=O)[C@@H]2CCCN2C(=O)[C@H](CCc2ccc(C(F)(F)F)c(F)c2)NC(=O)CN(C)C(=O)[C@H](CC2CCCCC2)N(C)C(=O)[C@@H]2CCN2C(=O)[C@H](C)N(C)C1=O` [Compound 790] ([NMeL]I[NMeA][Aze][NMeCha][Sar][hPhe(3-F,4-CF3)]P[Ac5c][NMeI][NMeD]-Morpholide; lactam N-11) displayed an IC50 of 20 to 50 nM.

Molecule `CC[C@H](C)[C@@H]1NC(=O)[C@H](CC(C)C)N(C)C(=O)C[C@@H](C)NC(=O)[C@H](C2CCCC2)N(C)C(=O)C2(CCCC2)NC(=O)[C@@H]2CCCN2C(=O)[C@H](CCc2ccc(C(F)(F)F)c(Cl)c2)NC(=O)CN(C)C(=O)[C@H](Cc2ccc(C)cc2)N(C)C(=O)[C@@H]2CCN2C(=O)[C@H](C)NC1=O` [Compound 1331] (cyclo(A[Aze][NMePhe(4-Me)][Sar][hPhe(3-Cl-4-CF3)]P[Ac5c][NMeGly(cPent)][d(β3hA)][NMeL]I)) returned an IC50 of 50 to 100 nM.

Molecule `CC[C@H](C)[C@@H]1NC(=O)[C@H](COC2CC2)N(C)C(=O)C[C@@H](C(=O)N2CCCCC2)N(C)C(=O)[C@H](C(C)C)N(C)C(=O)C2(CCCC2)NC(=O)[C@@H]2CCCN2C(=O)[C@H](CCc2ccc(C(F)(F)F)c(Cl)c2)NC(=O)CN(C)C(=O)[C@H](CC2CCCCC2)N(C)C(=O)[C@@H]2CCN2C(=O)[C@H](C)N(C)C1=O` [Compound 1764] ([NMeS](Cyclopropyl)I[NMeA][Aze][NMeCha][Sar][hPhe(3-Cl-4-CF3)]P[Ac5c][NMeV][NMeD]-Piperidide; lactam N-11) had an IC50 of 100 to 500 nM.

`CC[C@H](C)[C@@H]1NC(=O)[C@H](CC(C)C)N(C)C(=O)C[C@@H](C(=O)N2CCCCC2)N(C)C(=O)[C@H](C2CCCC2)N(C)C(=O)C2(CCCC2)NC(=O)[C@@H]2CCCN2C(=O)[C@H](CCc2ccc3occc3c2)NC(=O)CN(C)C(=O)[C@H](CC2CCCCC2)N(C)C(=O)[C@@H]2CCN2C(=O)[C@H](C)N(C)C1=O` [Compound 2063] ([NMeL]I[NMeA][Aze][NMeCha][Sar][X86]P[Ac5c][NMeGly(cPent)][NMeD]-Piperidide; lactam N-11): the IC50 lay in the range of 50 to 100 nM.

Take `CC[C@H](C)[C@@H]1NC(=O)[C@H](CC(C)C)N(C)C(=O)C[C@@H](C)NC(=O)[C@H](C2CCCC2)N(C)C(=O)C2(CCCC2)NC(=O)[C@@H]2CCCN2C(=O)[C@H](CCc2ccc(C(F)(F)F)c(Cl)c2)NC(=O)CN(C)C(=O)[C@H](CC2CCCCC2)N(C)C(=O)[C@@H]2CCN2C(=O)CN(C)C1=O` [Compound 1499] (cyclo([Ac5c][NMeGly(cPent)][d(β3hA)][NMeL]I[Sar][Aze][NMeCha][Sar][hPhe(3-Cl-4-CF3)]P)): the IC50 lay in the range of 100 to 500 nM.
